This note sets out measurements from patent US9359358B2, “Cyclohexyl azetidine derivatives as JAK inhibitors” (Incyte Holdings Corporation, priority 2011, dated 2016).

Where a name gives a salt, the structure may show the parent alone.

For experiment [1], the target named is T1, human JAK1 (Homo sapiens, UniProt P23458).
T1 construct: human JAK1 (a.a. 837-1142); His tag (N); made in house; host or cells: insect cells (baculovirus)
Description: In Vitro JAK Kinase Assay (HTRF, phosphorylation of a biotinylated peptide), JAK1. The following applies: catalytic domain a.a. 837-1142, assay of Example A. The experiment is classed as biochemical. In a few lines:
(§1)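 HTRF detection (SA-APC plus Eu-labeled anti-phosphotyrosine Py20, 40 min after EDTA stop) quantified biotinylated-peptide phosphorylation. Kinase reactions with human JAK1 or JAK2 catalytic domains lasted 1 h at room temperature.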
On the technique in general: In TR-FRET formats the signal depends on donor and acceptor labels being close together.

Experiment [2] deals with T2, human JAK2 (Homo sapiens, UniProt O60674).
T2 construct: JAK2 (a.a. 828-1132); His tag (N); made in house; host or cells: insect cells (baculovirus)
Description: In Vitro JAK Kinase Assay (HTRF, phosphorylation of a biotinylated peptide), JAK2. The experiment is classed as biochemical. The conditions noted are these: assay of Example A. An outline of the steps:
as §1

T1 sequence (P23458 849-1154): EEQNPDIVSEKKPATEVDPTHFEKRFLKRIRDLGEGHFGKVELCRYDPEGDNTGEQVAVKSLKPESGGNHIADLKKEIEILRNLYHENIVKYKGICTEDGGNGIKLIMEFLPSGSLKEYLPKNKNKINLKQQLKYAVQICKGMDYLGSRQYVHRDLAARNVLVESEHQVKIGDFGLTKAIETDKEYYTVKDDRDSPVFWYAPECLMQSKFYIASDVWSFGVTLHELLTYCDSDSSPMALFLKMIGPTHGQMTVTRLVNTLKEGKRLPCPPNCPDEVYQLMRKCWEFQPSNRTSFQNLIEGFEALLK
T2 sequence (O60674 828-1132): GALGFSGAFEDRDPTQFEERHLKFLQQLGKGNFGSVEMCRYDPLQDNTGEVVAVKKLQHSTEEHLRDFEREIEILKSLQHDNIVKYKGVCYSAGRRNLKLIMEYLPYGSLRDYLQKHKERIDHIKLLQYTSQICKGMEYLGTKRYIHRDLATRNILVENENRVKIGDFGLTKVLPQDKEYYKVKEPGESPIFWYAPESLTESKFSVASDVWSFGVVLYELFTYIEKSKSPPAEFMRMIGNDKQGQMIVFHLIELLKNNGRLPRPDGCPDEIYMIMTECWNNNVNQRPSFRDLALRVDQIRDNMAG

By IC50 is commonly meant the concentration that gives 50% inhibition. Higher therefore signals lower potency. Regarding `CC(C)(O)c1cc(O[C@H]2CC[C@@H](N3CC(CC#N)(n4cc(-c5ncnc6[nH]ccc56)cn4)C3)CC2)nc(C(F)(F)F)n1` [Example 43, {1-(cis-4-{[6-(1-Hydroxy-1-methylethyl)-2-(trifluoromethyl)pyrimidin-4-yl]oxy}cyclohexyl)-3-[4-(7H-pyrrolo[2,3-d]pyrimidin-4-yl)-1H-pyrazol-1-yl]azetidin-3-yl}acetonitrile bis(trifluoroacetate)], in experiment [1] (Table 4), the IC50 is less than 10 nM. For the same compound, in experiment [2] (Table 4), the “JAK2/JAK1 IC50 ratio” value is on record as “≧10”.

For `CC(C)(C)NCc1cc(O[C@H]2CC[C@@H](N3CC(CC#N)(n4cc(-c5ncnc6[nH]ccc56)cn4)C3)CC2)nc(C(F)(F)F)n1` [Example 44, {1-(cis-4-{[6-[(tert-Butylamino)methyl]-2-(trifluoromethyl)pyrimidin-4-yl]oxy}cyclohexyl)-3-[4-(7H-pyrrolo[2,3-d]pyrimidin-4-yl)-1H-pyrazol-1-yl]azetidin-3-yl}acetonitrile tetrakis(trifluoroacetate)], the IC50 in experiment [1] (Table 4) was less than 10 nM. Also, the “JAK2/JAK1 IC50 ratio” value in experiment [2] (Table 4) is listed as “≧10”.

In experiment [1] (Table 4), `N#CCC1(n2cc(-c3ncnc4[nH]ccc34)cn2)CN([C@H]2CC[C@@H](Oc3cc(CCO)nc(C(F)(F)F)n3)CC2)C1` [Example 45, {1-(cis-4-{[6-(2-hydroxyethyl)-2-(trifluoromethyl)pyrimidin-4-yl]oxy}cyclohexyl)-3-[4-(7H-pyrrolo[2,3-d]pyrimidin-4-yl)-1H-pyrazol-1-yl]azetidin-3-yl}acetonitrile tris(trifluoroacetate)] gave an IC50 of less than 10 nM. For the same compound, the “JAK2/JAK1 IC50 ratio” value in experiment [2] (Table 4) is given as “≧10”.

For `CN(C)C(=O)c1cc(O[C@H]2CC[C@@H](N3CC(CC#N)(n4cc(-c5ncnc6[nH]ccc56)cn4)C3)CC2)nc(C(F)(F)F)n1` [Example 46, 6-[(cis-4-{3-(cyanomethyl)-3-[4-(7H-pyrrolo[2,3-d]pyrimidin-4-yl)-1H-pyrazol-1-yl]azetidin-1-yl}cyclohexyl)oxy]-N,N-dimethyl-2-(trifluoromethyl)pyrimidine-4-carboxamide bis(trifluoroacetate)], the IC50 in experiment [1] (Table 4) was less than 10 nM. For the same compound, the “JAK2/JAK1 IC50 ratio” value in experiment [2] (Table 4) is given as “≧10”.

With `CCN(C)C(=O)c1cc(O[C@H]2CC[C@@H](N3CC(CC#N)(n4cc(-c5ncnc6[nH]ccc56)cn4)C3)CC2)nc(C(F)(F)F)n1` [Example 48, 6-[(cis-4-{3-(cyanomethyl)-3-[4-(7H-pyrrolo[2,3-d]pyrimidin-4-yl)-1H-pyrazol-1-yl]azetidin-1-yl}cyclohexyl)oxy]-N-ethyl-N-methyl-2-(trifluoromethyl)pyrimidine-4-carboxamide bis(trifluoroacetate)], the IC50 in experiment [1] (Table 4) is less than 10 nM. Besides, the “JAK2/JAK1 IC50 ratio” value in experiment [2] (Table 4) was “≧10”.

`CCNC(=O)c1cc(O[C@H]2CC[C@@H](N3CC(CC#N)(n4cc(-c5ncnc6[nH]ccc56)cn4)C3)CC2)nc(C(F)(F)F)n1` [Example 49, 6-[(cis-4-{3-(cyanomethyl)-3-[4-(7H-pyrrolo[2,3-d]pyrimidin-4-yl)-1H-pyrazol-1-yl]azetidin-1-yl}cyclohexyl)oxy]-N-ethyl-2-(trifluoromethyl)pyrimidine-4-carboxamide bis(trifluoroacetate)] showed an IC50 in experiment [1] (Table 4) of less than 10 nM. Moreover, in experiment [2] (Table 4), the “JAK2/JAK1 IC50 ratio” value was “≧10”.

Compound `COCCNC(=O)c1cc(O[C@H]2CC[C@@H](N3CC(CC#N)(n4cc(-c5ncnc6[nH]ccc56)cn4)C3)CC2)nc(C(F)(F)F)n1` [Example 50, 6-[(cis-4-{3-(cyanomethyl)-3-[4-(7H-pyrrolo[2,3-d]pyrimidin-4-yl)-1H-pyrazol-1-yl]azetidin-1-yl}cyclohexyl)oxy]-N-(2-methoxyethyl)-2-(trifluoromethyl)pyrimidine-4-carboxamide bis(trifluoroacetate)] gave an IC50 in experiment [1] (Table 4) of less than 10 nM. Further, the “JAK2/JAK1 IC50 ratio” value in experiment [2] (Table 4) is recorded as “≧10”.

With `N#CCC1(n2cc(-c3ncnc4[nH]ccc34)cn2)CN([C@H]2CC[C@@H](Oc3cc(C(=O)N4CCCC4)nc(C(F)(F)F)n3)CC2)C1` [Example 51, {1-(cis-4-{[6-(pyrrolidin-1-ylcarbonyl)-2-(trifluoromethyl)pyrimidin-4-yl]oxy}cyclohexyl)-3-[4-(7H-pyrrolo[2,3-d]pyrimidin-4-yl)-1H-pyrazol-1-yl]azetidin-3-yl}acetonitrile bis(trifluoroacetate)], in experiment [1] (Table 4), the IC50 was less than 10 nM. For the same compound, the “JAK2/JAK1 IC50 ratio” value in experiment [2] (Table 4) is reported as “≧10”.

The compound `CC(C)(CO)NCc1cc(O[C@H]2CC[C@@H](N3CC(CC#N)(n4cc(-c5ncnc6[nH]ccc56)cn4)C3)CC2)nc(C(F)(F)F)n1.O=C(O)C(F)(F)F.O=C(O)C(F)(F)F.O=C(O)C(F)(F)F.O=C(O)C(F)(F)F` [Example 52, {1-(cis-4-{[6-{[(2-hydroxy-1,1-dimethylethyl)amino]methyl}-2-(trifluoromethyl)pyrimidin-4-yl]oxy}cyclohexyl)-3-[4-(7H-pyrrolo[2,3-d]pyrimidin-4-yl)-1H-pyrazol-1-yl]azetidin-3-yl}acetonitrile tetrakis(trifluoroacetate) (salt)] had an IC50 in experiment [1] (Table 4) of less than 10 nM. The “JAK2/JAK1 IC50 ratio” value in experiment [2] (Table 4) is reported as “≧10”.

Compound `CC1(NCc2cc(O[C@H]3CC[C@@H](N4CC(CC#N)(n5cc(-c6ncnc7[nH]ccc67)cn5)C4)CC3)nc(C(F)(F)F)n2)CC1.O=C(O)C(F)(F)F.O=C(O)C(F)(F)F.O=C(O)C(F)(F)F` [Example 53, {1-(cis-4-{[6-{[(1-methylcyclopropyl)amino]methyl}-2-(trifluoromethyl)pyrimidin-4-yl]oxy}cyclohexyl)-3-[4-(7H-pyrrolo[2,3-d]pyrimidin-4-yl)-1H-pyrazol-1-yl]azetidin-3-yl}acetonitrile tris(trifluoroacetate)] displayed an IC50 in experiment [1] (Table 4) of less than 10 nM. In experiment [2] (Table 4), the “JAK2/JAK1 IC50 ratio” value was “≧10”.

Turning to `N#CCC1(n2cc(-c3ncnc4[nH]ccc34)cn2)CN([C@H]2CC[C@@H](Oc3cc(C#N)nc(C(F)(F)F)n3)CC2)C1` [Example 54, 6-[(cis-4-{3-(cyanomethyl)-3-[4-(7H-pyrrolo[2,3-d]pyrimidin-4-yl)-1H-pyrazol-1-yl]azetidin-1-yl}cyclohexyl)oxy]-2-(trifluoromethyl)pyrimidine-4-carbonitrile bis(trifluoroacetate)], the IC50 in experiment [1] (Table 4) was less than 10 nM. Moreover, in experiment [2] (Table 4), the “JAK2/JAK1 IC50 ratio” value was “≧10”.

In turn, `N#CCC1(n2cc(-c3ncnc4[nH]ccc34)cn2)CN([C@H]2CC[C@@H](Oc3cc(OCCO)nc(C(F)(F)F)n3)CC2)C1` [Example 56, {1-(cis-4-{[6-(2-hydroxyethoxy)-2-(trifluoromethyl)pyrimidin-4-yl]oxy}cyclohexyl)-3-[4-(7H-pyrrolo[2,3-d]pyrimidin-4-yl)-1H-pyrazol-1-yl]azetidin-3-yl}acetonitrile bis(trifluoroacetate) (salt)] had an IC50 in experiment [1] (Table 4) of less than 10 nM. Further, the “JAK2/JAK1 IC50 ratio” value in experiment [2] (Table 4) is “≧10”.

On to `N#CCC1(n2cc(-c3ncnc4[nH]ccc34)cn2)CN([C@H]2CC[C@@H](Oc3cc(CCF)nc(C(F)(F)F)n3)CC2)C1` [Example 60, {1-(cis-4-{[6-(2-fluoro ethyl)-2-(trifluoromethyl)pyrimidin-4-yl]oxy}cyclohexyl)-3-[4-(7H-pyrrolo[2,3-d]pyrimidin-4-yl)-1H-pyrazol-1-yl]azetidin-3-yl}acetonitrile tris(trifluoroacetate)], for which the IC50 in experiment [1] (Table 4) was less than 10 nM. Further, in experiment [2] (Table 4), the “JAK2/JAK1 IC50 ratio” value is on record as “≧10”.

The compound `CC(C)(F)c1cc(O[C@H]2CC[C@@H](N3CC(CC#N)(n4cc(-c5ncnc6[nH]ccc56)cn4)C3)CC2)nc(C(F)(F)F)n1.O=C(O)C(F)(F)F.O=C(O)C(F)(F)F` [Example 61, {1-(cis-4-{[6-(1-fluoro-1-methylethyl)-2-(trifluoromethyl)pyrimidin-4-yl]oxy}cyclohexyl)-3-[4-(7H-pyrrolo[2,3-d]pyrimidin-4-yl)-1H-pyrazol-1-yl]azetidin-3-yl}acetonitrile bis(trifluoroacetate)] registered an IC50 in experiment [1] (Table 4) of less than 10 nM. In experiment [2] (Table 4), the “JAK2/JAK1 IC50 ratio” value is “≧10”.

`CC(C)(CO)c1cc(O[C@H]2CC[C@@H](N3CC(CC#N)(n4cc(-c5ncnc6[nH]ccc56)cn4)C3)CC2)nc(C(F)(F)F)n1` [Example 62, {1-(cis-4-{[6-(2-hydroxy-1,1-dimethylethyl)-2-(trifluoromethyl)pyrimidin-4-yl]oxy}cyclohexyl)-3-[4-(7H-pyrrolo[2,3-d]pyrimidin-4-yl)-1H-pyrazol-1-yl]azetidin-3-yl}acetonitrile tris(trifluoroacetate) (salt)] came in with an IC50 in experiment [1] (Table 4) of less than 10 nM. Also, in experiment [2] (Table 4), the “JAK2/JAK1 IC50 ratio” value was “≧10”.

Compound `N#CCC1(n2cc(-c3ncnc4[nH]ccc34)cn2)CN([C@H]2CC[C@@H](Oc3cc(C4(CO)CC4)nc(C(F)(F)F)n3)CC2)C1` [Example 63, {1-(cis-4-{[6-[1-(hydroxymethyl)cyclopropyl]-2-(trifluoromethyl)pyrimidin-4-yl]oxy}cyclohexyl)-3-[4-(7H-pyrrolo[2,3-d]pyrimidin-4-yl)-1H-pyrazol-1-yl]azetidin-3-yl}acetonitrile bis(trifluoroacetate) (salt)] had an IC50 in experiment [1] (Table 4) of less than 10 nM. The “JAK2/JAK1 IC50 ratio” value in experiment [2] (Table 4) is given as “≧10”.

In experiment [1] (Table 5), `N#CCC1(n2cc(-c3ncnc4[nH]ccc34)cn2)CN([C@H]2CC[C@@H](Oc3cc(CO)cc(C(F)(F)F)n3)CC2)C1` [Example 64, {1-(cis-4-{[4-(hydroxymethyl)-6-(trifluoromethyl)pyridin-2-yl]oxy}cyclohexyl)-3-[4-(7H-pyrrolo[2,3-d]pyrimidin-4-yl)-1H-pyrazol-1-yl]azetidin-3-yl}acetonitrile bis(trifluoroacetate)] yielded an IC50 of less than 10 nM. In addition, the “JAK2/JAK1 IC50 ratio” value in experiment [2] (Table 5) is reported as “≧10”.

The compound `CCNCc1cc(O[C@H]2CC[C@@H](N3CC(CC#N)(n4cc(-c5ncnc6[nH]ccc56)cn4)C3)CC2)nc(C(F)(F)F)c1` [Example 65, {1-(cis-4-{[4-[(ethylamino)methyl]-6-(trifluoromethyl)pyridin-2-yl]oxy}cyclohexyl)-3-[4-(7H-pyrrolo[2,3-d]pyrimidin-4-yl)-1H-pyrazol-1-yl]azetidin-3-yl}acetonitrile tris(trifluoroacetate)] showed an IC50 in experiment [1] (Table 5) of less than 10 nM. Also, the “JAK2/JAK1 IC50 ratio” value in experiment [2] (Table 5) is on record as “≧10”.
